Results: US11795177B2, “Substituted quinoline analogs as aldehyde dehydrogenase 1A1 (ALDH1A1) inhibitors” (THE UNITED STATES OF AMERICA, AS REPRESENTED BY THE …, priority 2017, dated 2023)

How the values were obtained:
[1] = molecular target: T1, ALDH1A1 enzyme (Homo sapiens, UniProt P00352); test: ALDH1A1 enzymatic assay (in vitro); type: biochemical; conditions: ALDH1A1 enzyme 20 nM, NAD+ 1 mM, propionaldehyde 80 μM; read-out: ALDH1A1 IC50
T1 sequence (P00352 1-501): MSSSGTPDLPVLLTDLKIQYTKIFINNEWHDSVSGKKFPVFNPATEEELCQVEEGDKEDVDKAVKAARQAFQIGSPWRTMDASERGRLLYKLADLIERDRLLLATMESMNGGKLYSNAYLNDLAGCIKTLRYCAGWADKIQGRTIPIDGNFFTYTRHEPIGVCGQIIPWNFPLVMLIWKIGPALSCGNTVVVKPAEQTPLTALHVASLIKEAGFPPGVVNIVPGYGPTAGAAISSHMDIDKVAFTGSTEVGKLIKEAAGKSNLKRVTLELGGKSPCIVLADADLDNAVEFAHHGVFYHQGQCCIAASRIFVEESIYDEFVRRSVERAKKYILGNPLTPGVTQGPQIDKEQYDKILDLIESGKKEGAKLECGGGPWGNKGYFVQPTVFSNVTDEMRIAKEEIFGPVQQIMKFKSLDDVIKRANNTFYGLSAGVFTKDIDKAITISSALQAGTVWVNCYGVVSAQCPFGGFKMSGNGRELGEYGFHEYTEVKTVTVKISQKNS
In short: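 ALDH1A1 (20 nM final) in 100 mM HEPES pH 7.5, 0.01% Tween 20 was preincubated 15 min at RT with compound (968 pM–57.2 μM final), then started with 1 mM NAD+ and 80 μM propionaldehyde. NADH fluorescence (ex 340/em 450 nm) followed kinetically for 10 min; change normalized to no-inhibitor and no-enzyme controls for percent inhibition and curve fitting.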

[2] = system: MIA PaCa-2 cells; test: MIA PaCa2 cell-based assay (1,536-well high-content imaging ALDEFLUOR assay); set-up: species or system human; conditions: Homo sapiens, 0.5 h, ALDEFLUOR BAAA substrate 500 nM, 30 minutes
In short: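 MIA PaCa-2 cells (1,000/well), plated overnight, given BAAA substrate (500 nM) plus Hoechst 33342 (0.5 nM), then compound (16-point, 1.4 nM–47.8 μM final; 0.5% DMSO). After 30 min at 37° C, ALDH activity imaged by high-content microscopy as BAA-retaining (FITC) cells versus Hoechst-stained nuclei.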

SMILES	IC50 [1]	IC50 [2]
CCNC(=O)N1CCN(C(=O)c2cnc3ccc(F)cc3c2N2CCC(C)(C#N)CC2)CC1 [Example 89, 4-(4-(4-cyano-4-methylpiperidin-1-yl)-6-fluoroquinoline-3-carbonyl)-N-ethylpiperazine-1-carboxamide]	< 500 nM	> 10000 nM
CC(C)NC(=O)N1CCN(C(=O)c2cnc3ccc(F)cc3c2N2CCC(C)(C#N)CC2)CC1 [Example 90, 4-(4-(4-cyano-4-methylpiperidin-1-yl)-6-fluoroquinoline-3-carbonyl)-N-isopropylpiperazine-1-carboxamide]	1000 to 10000 nM	> 10000 nM
CC1(C#N)CCN(c2c(C(=O)N3CCN(C(=O)C4CC4)CC3)cnc3ccccc23)CC1 [Example 93, 1-(3-(4-(cyclopropanecarbonyl)piperazine-1-carbonyl)quinolin-4-yl)-4-methylpiperidine-4-carbonitrile]	< 500 nM	1000 to 10000 nM
CCC(=O)N1CCN(C(=O)c2cnc3ccccc3c2N2CCC(C)(C#N)CC2)CC1 [Example 94, 4-methyl-1-(3-(4-propionylpiperazine-1-carbonyl)quinolin-4-yl)piperidine-4-carbonitrile]	500 to 1000 nM	> 10000 nM
CC(C)C(=O)N1CCN(C(=O)c2cnc3ccccc3c2N2CCC(C)(C#N)CC2)CC1 [Example 95, 1-(3-(4-isobutyrylpiperazine-1-carbonyl)quinolin-4-yl)-4-methylpiperidine-4-carbonitrile]	< 500 nM	> 10000 nM
CC(=O)N1CCN(C(=O)c2cnc3ccccc3c2N2CCC(C)(C#N)CC2)CC1 [Example 96, 1-(3-(4-acetylpiperazine-1-carbonyl)quinolin-4-yl)-4-methylpiperidine-4-carbonitrile]	1000 to 10000 nM	> 10000 nM
CC1(C#N)CCN(c2c(C(=O)N3CCN(S(C)(=O)=O)CC3)cnc3ccccc23)CC1 [Example 97, 4-methyl-1-(3-(4-(methylsulfonyl)piperazine-1-carbonyl)quinolin-4-yl)piperidine-4-carbonitrile]	< 500 nM	> 10000 nM
CC1(C#N)CCN(c2c(C(=O)N3CCN(S(=O)(=O)C4CC4)CC3)cnc3ccccc23)CC1 [Example 98, 1-(3-(4-(cyclopropylsulfonyl)piperazine-1-carbonyl)quinolin-4-yl)-4-methylpiperidine-4-carbonitrile]	1000 to 10000 nM	> 10000 nM
CCNC(=O)N1CCN(C(=O)c2cnc3ccccc3c2N2CCC(C)(C#N)CC2)CC1 [Example 99, 4-(4-(4-cyano-4-methylpiperidin-1-yl)quinoline-3-carbonyl)-N-ethylpiperazine-1-carboxamide]	1000 to 10000 nM	> 10000 nM
CCOC(=O)N1CCN(C(=O)c2cnc3ccccc3c2N2CCC(C)(C#N)CC2)CC1 [Example 100, Ethyl 4-(4-(4-cyano-4-methylpiperidin-1-yl)quinoline-3-carbonyl)piperazine-1-carboxylate]	500 to 1000 nM	> 10000 nM
COc1ccc2c(N3CCC(C)(C#N)CC3)c(C(=O)N3CCN(C(=O)C4CC4)CC3)cnc2c1 [Example 101, 1-(3-(4-(cyclopropanecarbonyl)piperazine-1-carbonyl)-7-methoxyquinolin-4-yl)-4-methylpiperidine-4-carbonitrile]	< 500 nM	1000 to 10000 nM
CCC(=O)N1CCN(C(=O)c2cnc3cc(OC)ccc3c2N2CCC(C)(C#N)CC2)CC1 [Example 102, 1-(7-methoxy-3-(4-propionylpiperazine-1-carbonyl)quinolin-4-yl)-4-methylpiperidine-4-carbonitrile]	< 500 nM	1000 to 10000 nM
COc1ccc2c(N3CCC(C)(C#N)CC3)c(C(=O)N3CCN(C(=O)C(C)C)CC3)cnc2c1 [Example 103, 1-(3-(4-isobutyrylpiperazine-1-carbonyl)-7-methoxyquinolin-4-yl)-4-methylpiperidine-4-carbonitrile]	< 500 nM	1000 to 10000 nM
COc1ccc2c(N3CCC(C)(C#N)CC3)c(C(=O)N3CCN(C(C)=O)CC3)cnc2c1 [Example 104, 1-(3-(4-acetylpiperazine-1-carbonyl)-7-methoxyquinolin-4-yl)-4-methylpiperidine-4-carbonitrile]	< 500 nM	> 10000 nM
COc1ccc2c(N3CCC(C)(C#N)CC3)c(C(=O)N3CCN(S(C)(=O)=O)CC3)cnc2c1 [Example 105, 1-(7-methoxy-3-(4-(methylsulfonyl)piperazine-1-carbonyl)quinolin-4-yl)-4-methylpiperidine-4-carbonitrile]	< 500 nM	1000 to 10000 nM
COc1ccc2c(N3CCC(C)(C#N)CC3)c(C(=O)N3CCN(S(=O)(=O)C4CC4)CC3)cnc2c1 [Example 106, 1-(3-(4-(cyclopropylsulfonyl)piperazine-1-carbonyl)-7-methoxyquinolin-4-yl)-4-methylpiperidine-4-carbonitrile]	< 500 nM	1000 to 10000 nM
CCNC(=O)N1CCN(C(=O)c2cnc3cc(OC)ccc3c2N2CCC(C)(C#N)CC2)CC1 [Example 107, 4-(4-(4-cyano-4-methylpiperidin-1-yl)-7-methoxyquinoline-3-carbonyl)-N-ethylpiperazine-1-carboxamide]	< 500 nM	1000 to 10000 nM
CCOC(=O)N1CCN(C(=O)c2cnc3cc(OC)ccc3c2N2CCC(C)(C#N)CC2)CC1 [Example 108, Ethyl 4-(4-(4-cyano-4-methylpiperidin-1-yl)-7-methoxyquinoline-3-carbonyl)piperazine-1-carboxylate]	< 500 nM	1000 to 10000 nM
COc1cc2ncc(C(=O)N3CCN(C(=O)C4CC4)CC3)c(N3CCC(C)(C#N)CC3)c2cc1OC [Example 109, 1-(3-(4-(cyclopropanecarbonyl)piperazine-1-carbonyl)-6,7-dimethoxyquinolin-4-yl)-4-methylpiperidine-4-carbonitrile]	< 500 nM	1000 to 10000 nM
CCC(=O)N1CCN(C(=O)c2cnc3cc(OC)c(OC)cc3c2N2CCC(C)(C#N)CC2)CC1 [Example 110, 1-(6,7-dimethoxy-3-(4-propionylpiperazine-1-carbonyl)quinolin-4-yl)-4-methylpiperidine-4-carbonitrile]	< 500 nM	1000 to 10000 nM
COc1cc2ncc(C(=O)N3CCN(C(=O)C(C)C)CC3)c(N3CCC(C)(C#N)CC3)c2cc1OC [Example 111, 1-(3-(4-isobutyrylpiperazine-1-carbonyl)-6,7-dimethoxyquinolin-4-yl)-4-methylpiperidine-4-carbonitrile]	< 500 nM	1000 to 10000 nM
COc1cc2ncc(C(=O)N3CCN(C(C)=O)CC3)c(N3CCC(C)(C#N)CC3)c2cc1OC [Example 112, 1-(3-(4-acetylpiperazine-1-carbonyl)-6,7-dimethoxyquinolin-4-yl)-4-methylpiperidine-4-carbonitrile]	< 500 nM	1000 to 10000 nM
COc1cc2ncc(C(=O)N3CCN(S(C)(=O)=O)CC3)c(N3CCC(C)(C#N)CC3)c2cc1OC [Example 113, 1-(6,7-dimethoxy-3-(4-(methylsulfonyl)piperazine-1-carbonyl)quinolin-4-yl)-4-methylpiperidine-4-carbonitrile]	< 500 nM	1000 to 10000 nM
COc1cc2ncc(C(=O)N3CCN(S(=O)(=O)C4CC4)CC3)c(N3CCC(C)(C#N)CC3)c2cc1OC [Example 114, 1-(3-(4-(cyclopropylsulfonyl)piperazine-1-carbonyl)-6,7-dimethoxyquinolin-4-yl)-4-methylpiperidine-4-carbonitrile]	< 500 nM	1000 to 10000 nM
